Consider twelve compounds from patent publication US5744600A, “Phosphonomethoxy carbocyclic nucleosides and nucleotides” (Institute of Organic Chemistry and Biochemistry of the …, priority 1994, dated 1998).

Series [1] has as its system herpes simplex virus Type 1 (HSV-1) [BW^s strain]. Description: HSV-1 plaque reduction assay in vero cells. The series is classed as cell-based. As to conditions: Human alphaherpesvirus 1, Table II, racemic series, 48 hour incubation, read-out: HSV-1 in vitro antiviral activity (IC50). How it is done: (§1) The antiviral activity of compounds of the invention, against both herpes viruses and human immunodeficiency virus (HIV), are presented in Table II. In Table II, the numbers in parenthesis in the columns reporting HIV activity represent the TD50, that is, the dosage at which toxic effects are observed in 50% of the population of cells tested.
(§2) The compounds were evaluated for antiviral activity in vitro by a standard plaque reduction assay. Experiments were conducted with vero cells (African Green Monkey Kidney cells) infected with herpes simplex virus Type 1 (HSV-1) [BW^s strain, C. D. Sibrack, et al., Infect. Disc., 1982, 146, 673] and herpes simplex virus Type 2 (HSV-2) [G strain, obtained from American Tissue Culture Collection, Rockville, Md.] and with MRC-5 cells (human embryonic lung (diploid) cells) infected with human cytomegalovirus (HCMV) [AD169 strain, obtained from American Tissue Culture Collection, Rockville, Md].
(§3) Briefly, confluent cell monolayers in 24-well plates were infected with 3-50 plaque-forming units of virus in 100 μl of phosphate-buffered saline. After a 1 hour adsorption period, residual inoculum was replaced with 1 mL of the appropriate dilution of the test compound which had been freshly prepared in Eagle's minimal essential medium ("EMEM") containing 10% fetal bovine serum. After a 48 hour incubation period at 37° C. in a 5% CO2 atmosphere, cell monolayers were fixed and stained with Carbol fuchsin and plaques were counted. The antiviral potency of the compound was determined by IC50, the inhibitory concentration necessary to reduce the number of plaques by 50% of those in the virus control cultures.

Series [2] relates to herpes simplex virus Type 2 (HSV-2) [G strain]. In words: HSV-2 plaque reduction assay in vero cells. The series is classed as cell-based. The settings on record: Human alphaherpesvirus 2, Table II, racemic series, 48 hour incubation, read-out: HSV-2 in vitro antiviral activity (IC50). How it is done: as §1, §2, §3
Series [3] has as its system human cytomegalovirus (HCMV) [AD169 strain]. Description: HCMV plaque reduction assay in MRC-5 cells. It counts as cell-based. The settings on record: Human betaherpesvirus 5, AD169, MRC5, Table II, racemic series, 48 hour incubation, read-out: HCMV in vitro antiviral activity (IC50). On the procedure:
as §2, §3
In general terms: In a plaque reduction assay, fewer plaques than in the control indicate reduced infectivity or spread.

For series [4], the system named is Murine leukemia virus (MuLV). In words: MuLV UV-XC plaque assay in SC-1 cells. The settings on record: SC1, Table II, racemic series, read-out: MuLV in vitro antiviral activity (IC50). It counts as cell-based. On the procedure: The compounds were evaluated for antiviral activity against Murine leukemia virus (MuLV) strains using the UV-XC plaque assay (Rowe, et. al., Virology, 42:1136, 1970).
The MuLV strains were grown in fetal mouse cells, (SC-1) and used for antiviral tests using the UV-XC plaque assay. Briefly, SC-1 cells are grown as monolayers in 4-well tissue culture plates and inoculated with approximately 50-100 plaque forming units of MuLV in 0.5 ml of 5% EMEM containing 20 μg/ml DEAE/Dextran. After 1 hr. adsorption, the inoculum is removed and 5 ml of 5% EMEM containing three-fold dilutions of the appropriate drug are added. Five days later, the cultures are UV-irradiated with an ultraviolet lamp and rat XC sarcoma cells are added to the cultures. Three to four days after UV-irradiation, the cell cultures are stained with Giemsa stain and the plaques are counted. Antiviral activity is expressed in terms of the reduction in the mean number of UV-XC plaques counted in the drug treated, virus-infected cultures compared with mean number of plaques counted in untreated, virus-infected control cultures. IC50 values are calculated by determining the concentration of compound necessary to reduce the number of plaques by 50% compared to those in the virus control cultures.

Series [5] has as its system HSV-1 (herpes simplex virus type 1, strain Schooler). In words: HSV-1 plaque inhibition assay in WI-38 cells. The series is classed as cell-based. The settings on record: Human alphaherpesvirus 1, 96 h, 4 days. How it is done: (§4) Additional assays were performed in cell culture systems to determine the concentrations of compounds that are effective in preventing several kinds of viral infections. In Tables III and IV, the anti-HIV results using CEM cells were obtained using the same protocol described earlier. Figures in parenthesis represent the observed TD50 in the HIV screens indicated. Abbreviations:
(§5) HSV-1 (herpes simplex virus type 1, strain Schooler), HSV-2 (herpes simplex virus type 2, strain 186), VZV (varicella zoster virus, strain ELLEN), HCMV (human cytomegalovirus, strain AD 169 HIV (human immunodeficiency virus, strain HTLV-IIIB).
(§6) Virus was adsorbed to WI-38 cell culture monolayers in 6 well culture plates (Costar, Cambridge, Mass.) for 1 hour prior to addition of maintenance medium containing duplicate dilutions of the test compound. Inhibition of plaque development was evaluated on fixed and stained monolayers after 4 days incubation at 37° C. for HSV-1 and HSV-2, and after 5-7 days incubation at 37° C. for HCMV and VZV. ID50 values were determined from the drug concentration which conferred at least a 50% plaque reduction compared to virus controls.

Series [6] relates to HSV-2 (herpes simplex virus type 2, strain 186). Description: HSV-2 plaque inhibition assay in WI-38 cells. As to conditions: Human alphaherpesvirus 2, 96 h, 4 days. The series is classed as cell-based. How it is done:
as §4, §5, §6

For series [7], the system named is HCMV (human cytomegalovirus, strain AD 169). Description: HCMV plaque inhibition assay in WI-38 cells. It counts as cell-based. As to conditions: 5-7 days. On the procedure: as §4, §5, §6
Series [8] has as its system VZV (varicella zoster virus, strain ELLEN). Description: VZV plaque inhibition assay in WI-38 cells. It counts as cell-based. As to conditions: 5-7 days. How it is done:
as §4, §5, §6

In series [9] the test system is phytopathogenic bacteria and fungi. The settings on record: Kusaka, et al., J. Antibiotics, (1968); cited from earlier work.
The conditions of series [10]: Herdewijn, et al., J. Med. Chem. (1985); cited from earlier work.
Series [11] relates to murine leukemia L1210. As to conditions: in vitro; Herdewijn, et al., J. Med. Chem. (1985); cited from earlier work.
The conditions of series [12]: Herdewijn, et al., J. Med. Chem. (1985); cited from earlier work. The source holds these as a separate data set.
[13] abbreviates: Table III, racemic series, read-out: HSV-1 in vitro antiviral activity (ID50).
Where [14] appears, read: Table III, racemic series, read-out: HSV-2 in vitro antiviral activity (ID50).
[15] abbreviates: Human betaherpesvirus 5, Table III, racemic series, read-out: HCMV in vitro antiviral activity (ID50).
Setting [16] is: Human alphaherpesvirus 3, Table III, racemic series, read-out: VZV in vitro antiviral activity (ID50).

Each structure is given as a SMILES string. In brackets after ≈: the same amount, converted by molar mass. Like-named read-outs stand apart in the source and are kept apart here.

Turning to `Nc1nc2c(ncn2C2C=CC(OCP(=O)(O)O)C2)c(=O)[nH]1` (centres unmarked) [drawing 15], the IC50 in [1] is 13.5 mg/L (≈ 41.3 µM); in [2], > 50 mg/L; in [3] it was > 100 mg/L; in series [4], 5.1 mg/L (≈ 15.6 µM).

`Nc1nc2c(ncn2C2CC(OCP(=O)(O)O)CC2F)c(=O)[nH]1` (centres unmarked): the IC50 in [5] (setting [13]) lay within 10 to 25 mg/L (≈ 28.8 to 72 µM); in series [6] (setting [14]), 10 to 25 mg/L (≈ 28.8 to 72 µM); in series [7] (setting [15]), 10 to 25 mg/L (≈ 28.8 to 72 µM); in series [8] (setting [16]), 10 to 33 mg/L (≈ 28.8 to 95 µM).

In the case of `Nc1ncnc2c1ncn2C1C=CC(OCP(=O)(O)O)C1` (centres unmarked) [drawing 24], the IC50 in series [1] was > 116 mg/L; in series [2], > 82 mg/L; in series [3], > 100 mg/L; in series [4] it was 0.84 mg/L (≈ 2.7 µM).

For `Nc1nc2c(ncn2C2CC(OCP(=O)(O)O)C(O)C2O)c(=O)[nH]1` (centres unmarked), the IC50 in series [1] was > 100 mg/L; in [2] it was > 100 mg/L; in series [3] it was 4.5 mg/L (≈ 12.5 µM); in series [4], > 100 mg/L.

On to `Nc1ncnc2c1ncn2C1CC(OCP(=O)(O)O)C(O)C1O` (centres unmarked), for which the IC50 in [2], in series [3] and in [4] was > 100 mg/L in each case.

For `Nc1ncnc2c1ncn2[C@@H]1C[C@H](CO)[C@@H](O)[C@H]1O` [aristeromycin], the “growth inhibitory activity against phytopathogenic bacteria and fungi” value in [9] was “growth inhibitory activity”. For the same compound, in [10], the cytotoxicity result is given as “cytotoxic”. Moreover, the “activity against murine leukemia L1210” value in series [11] is “active”. Moreover, the antiviral activity result in series [12] is reported as “has antiviral activity”.

Take `Nc1ncnc2c1ncn2C1CC(OCP(=O)(O)O)C(O)C1F` (centres unmarked) [drawing 27]: the IC50 was > 100 mg/L in series [2] and 85 mg/L (≈ 245 µM) in series [3].

As for `Nc1ncnc2c1ncn2C1C=CC(OCP(=O)(O)O)C1` (centres unmarked) [drawing 33], the IC50 in series [5] (setting [13]), in series [6] (setting [14]), in [7] (setting [15]) and in [8] (setting [16]) was > 100 mg/L each time.

For the compound `Nc1ncnc2c1ncn2C1CC(OCP(=O)(O)O)C(O)C1F` (centres unmarked) [drawing 67], the IC50 in [5] (Table IV, enantiomeric series (1R, 4S), read-out: HSV-1 in vitro antiviral data (ID50)) was 10 to 25 mg/L (≈ 28.8 to 72 µM); in series [6] (Table IV, enantiomeric series (1R, 4S), read-out: HSV-2 in vitro antiviral data (ID50)), 10 to 25 mg/L (≈ 28.8 to 72 µM); in [7] (Human betaherpesvirus 5, Table IV, enantiomeric series (1R, 4S), read-out: HCMV in vitro antiviral data (ID50)), > 100 mg/L; in series [8] (Human alphaherpesvirus 3, Table IV, enantiomeric series (1R, 4S), read-out: VZV in vitro antiviral data (ID50)), 5 to 10 mg/L (≈ 14.4 to 28.8 µM).

For `Nc1nc2c(ncn2C2C=CC(OCP(=O)(O)O)C2)c(=O)[nH]1` (centres unmarked) [drawing 30], the IC50 in series [5] (setting [13]) was > 72 mg/L; in series [6] (setting [14]), > 72 mg/L; in [7] (setting [15]), > 100 mg/L; in series [8] (setting [16]) it was 12 to 121 mg/L (≈ 36.7 to 370 µM).

On to `Cc1cn(C2C=CC(OCP(=O)(O)O)C2)c(=O)[nH]c1=O` (centres unmarked), for which the figures for the IC50 in series [1] and in series [2] were > 140 mg/L and > 134 mg/L, respectively.

On to `Nc1nc2c(ncn2C2CC(OCP(=O)(O)O)C(O)C2F)c(=O)[nH]1` (centres unmarked), for which the values for the IC50 in series [2] and in series [3] were 22 mg/L (≈ 60.6 µM) and 0.36 mg/L (≈ 0.991 µM), respectively.
